Tested on: Male Zucker Diabetic Fatty rats
Assay: In vivo evaluation in Zucker Diabetic Fatty rats
Parameters: species or system rat
Settings: oral gavage b.i.d., 7 days, percent reduction from vehicle control at day 7 relative to normalization (plasma glucose 140 mg/dL)
Protocol: Male Zucker Diabetic Fatty rats were lightly anesthetized with isofluorane gas and bleed by tail vein to obtain postprandial baseline concentrations for plasma glucose, serum lipids and insulin. Animals were baseline matched by plasma glucose and randomized into vehicle or treatment groups with compound administration by oral gavage, b.i.d., beginning at 8.5 weeks of age. Selected compounds were administered as a suspension in 0.5% methylcellulose for 7 consecutive days. Changes in body weight and food consumption were monitored from representative animals from each group, over a 48 hr period. After 7 days of treatment animals were anesthetized, blood samples obtained and analyzed for plasma glucose and lactate, serum triglyceride, total and HDL cholesterol, non-esterified free fatty acids and insulin concentration. Livers were weighed and corrected for body weight. Values in Table 1 for % Glucose reduction represent a summary of the percent reduction from vehicle control animals at day 7 relative to normalization defined in this model as plasma glucose levels of 140 mg/dL.

Compared with `C/C(=C/C(=O)c1ccccc1)N[C@@H](Cc1ccc(OCCc2nc(-c3ccccc3)oc2C)cc1)C(=O)O` [Example 1, (2S)-2{[(Z)-1-methyl-3-oxo-3-phenyl-1-propenyl]amino}-3-{4-[2-(5-methyl-2-phenyl-1,3-oxazol-4-yl)ethoxy]phenyl}propanoic acid], `CC/C(=C/C(=O)c1ccccc1)N[C@@H](Cc1ccc(OCCc2nc(-c3ccccc3)oc2C)cc1)C(=O)O` [Example 20, (2S)-2-{[(Z)-1-ethyl-3-oxo-3-phenyl-1-propenyl]amino}-3-{4-[2-(5-methyl-2-phenyl-1,3-oxazol-4-yl)ethoxy]phenyl}propanoic acid] is higher in “% Glucose Reduction” value: 39% for the first, 50% for the second.

Going from `C/C(=C/C(=O)c1ccccc1)N[C@@H](Cc1ccc(OCCc2nc(-c3ccc(C(F)(F)F)cc3)oc2C)cc1)C(=O)O` [Example 7, (2S)-2-{[(Z)-1-methyl-3-oxo-3-phenyl-1-propenyl]amino}-3-[4-(2-{5-methyl-2-[4-(trifluoromethyl)phenyl]-1,3-oxazol-4-yl}ethoxy)phenyl]propanoic acid] to `C/C(=C/C(=O)c1ccc(Cl)cc1)N[C@@H](Cc1ccc(OCCc2nc(-c3ccccc3)oc2C)cc1)C(=O)O` [Example 24, (2S)-2-{[(Z)-3-(4-chlorophenyl)-1-methyl-3-oxo-1-propenyl]amino}-3-{4-[2-(5-methyl-2-phenyl-1,3-oxazol-4-yl)ethoxy]phenyl}propanoic acid], the “% Glucose Reduction” value rises from 34% to 45%.

First: C/C(=C/C(=O)c1ccc(F)c(F)c1F)N[C@@H](Cc1ccc(OCCc2nc(-c3ccccc3)oc2C)cc1)C(=O)O [Example 12, (2S)-2-{[(Z)-1-methyl-3-oxo-3-(2,3,4-trifluorophenyl)-1-propenyl]amino}-3-{4-[2-(5-methyl-2-phenyl-1,3-oxazol-4-yl)ethoxy]phenyl}propanoic acid]
Second: C/C(=C/C(=O)c1cc(F)c(F)cc1F)N[C@@H](Cc1ccc(OCCc2nc(-c3ccccc3)oc2C)cc1)C(=O)O [Example 16, (2S)-2-{[(Z)-1-methyl-3-oxo-3-(2,4,5-trifluorophenyl)-1-propenyl]amino}-3-{4-[2-(5-methyl-2-phenyl-1,3-oxazol-4-yl)ethoxy]phenyl}propanoic acid]
The “% Glucose Reduction” value of the first is higher: 61% for the first, 59% for the second.

First: Cc1sc(-c2ccc(F)cc2)nc1CCOc1ccc(C[C@H](N/C(=C\C(=O)c2ccccc2)C(F)(F)F)C(=O)O)cc1 [Example 21, (2S)-3-(4-{2-[2-(4-fluorophenyl)-5-methyl-1,3-thiazol-4-yl]ethoxy}phenyl)-2-{[(Z)-3-oxo-3-phenyl-1-(trifluoromethyl)-1-propenyl]amino}propanoic acid]
Second: CC/C(=C/C(=O)c1ccc(C(F)(F)F)cc1)N[C@@H](Cc1ccc(OCCc2nc(-c3ccc(F)cc3)sc2C)cc1)C(=O)O [Example 22, (2S)-2-({(Z)-1-ethyl-3-oxo-3-[4-(trifluoromethyl)phenyl]-1propenyl}amino)-3-(4-{2-[2-(4-fluorophenyl)-5-methyl-1,3-thiazol-4-yl]ethoxy}phenyl)propanoic acid]
The “% Glucose Reduction” value of the first is higher: 82% for the first, 49% for the second.

Compared with `CCCC/C(=C/C(=O)c1ccccc1)N[C@@H](Cc1ccc(OCCc2nc(-c3ccccc3)oc2C)cc1)C(=O)O` [Example 23, (2S)-2-{[(Z)-1-butyl-3-oxo-3-phenyl-1-propenyl]amino}-3-{4-[2-(5-methyl-2-phenyl-1,3-oxazol-4-yl)ethoxy]phenyl}propanoic acid], `CCC/C(=C/C(=O)c1ccccc1)N[C@@H](Cc1ccc(OCCc2nc(-c3ccccc3)oc2C)cc1)C(=O)O` [Example 40] is lower in “% Glucose Reduction” value: 86% for the first, 79% for the second.

`Cc1oc(-c2ccccc2)nc1CCOc1ccc(C[C@H](N/C(=C\C(=O)c2ccccc2)C(F)(F)F)C(=O)O)cc1` [Example 48, (2S)-3-{4-[2-(5-methyl-2-phenyl-1,3-oxazol-4-yl)ethoxy]phenyl}-2{[(Z)-3-oxo-3-phenyl-1-(trifluoromethyl)-1-propenyl]amino}propanoic acid] was tested, and the “% Glucose Reduction” value was 81%.

— US6498174B1, “Substituted oxazoles and thiazoles derivatives as hPPARγ and hPPARα activators” (SmithKline Beecham Corporation, priority 1998, dated 2002)
